The record followed here is patent US20230332245A1, “Complement as Prognostic and Predictive Biomarker and Potential Therapeutic Target in Renal Cell Carcinoma” (Texas Tech University System, priority 2020, published 2023).

Common to all, as to type: in vivo, mouse
For assay [1], the system named is Renca cells. The assay is described as follows: Tumor growth in anti-PD-1-recalcitrant Renca model of RCC. The note with it: BALB/c mice, s.c. Renca tumors; vs placebo (PBS) or isotype IgG; FIG. 6A, 6C. On the procedure:
(§1) Mouse studies were approved by the Institutional Animal Care and Use Committee of the Texas Tech University Health Sciences Center. Eight to twelve weeks old BALB/c, C3ar1, and C5ar1 knockout mice from the Jackson Laboratory were injected s.c. with 1×10^6 Renca cells (ATCC® CRL2947™). When tumors reached ˜5 mm in diameter mice were assigned to treatment cohorts and treated with, C3aR1 inhibitor SB 290157 (Sigma-Aldrich, 10 mg/kg i.p. twice a day), C5aR1 inhibitor PMX53 [17] (1 mg/kg, i.p. every other day), or PD-1 antibody (RMP1-14, BE-0146, Bio X Cell, 250 μg per mouse i.p. every 4 days), or RaIgG2a isotype control (BE-0089, Bio X Cell, 250 μg i.p. every 4 days), as previously described. CD8^+ T cells were depleted by intraperitoneal (i.p.) injection of 200 μg of CD8a-neutralizing antibody (2.43, Bio X cell, NH) per mouse, each day, for three consecutive days, prior to injecting tumor cells. […] BALB/c control mice were treated in the same manner with rat IgG2b (LTF-2, Bio X cell).
To test in vivo the role of complement proteins, the inventors used RCC-Renca (ATCC® CRL-2947™), a murine RCC model that while differing from human RCC, has been extensively evaluated in immunotherapy studies and is known to be recalcitrant to ICI [34], and therefore, potentially resembles ICI-resistant RCC. […]

Assay [2] relates to genes associated with T cell exhaustion; proangiogenic genes. Nature of the assay: Real time quantitative PCR of gene expression in Renca tumors. To be noted: relative to placebo; FIG. 6K. The procedure:
as §1
RNA was extracted from frozen tissue using RNeasy plus mini kit (Qiagen) and cDNA was generated using High-Capacity RNA-to-cDNA™ kit (Applied Biosystems). […] Relative expression was calculated using the 2^−ΔΔCt method and RT2 profiler PCR Array Data Analysis (SAB Biosciences) and normalized to GAPDH.

In assay [3] the test system is CD8^+ T cells in tumors (TIL). Nature of the assay: Flow cytometry of CD8+ T cells (TIL) and IFN-γ expressing TIL in Renca tumors. The procedure:
Mouse studies were approved by the Institutional Animal Care and Use Committee of the Texas Tech University Health Sciences Center. Eight to twelve weeks old BALB/c, C3ar1, and C5ar1 knockout mice from the Jackson Laboratory were injected s.c. with 1×10^6 Renca cells (ATCC® CRL2947™). When tumors reached ˜5 mm in diameter mice were assigned to treatment cohorts and treated with, C3aR1 inhibitor SB 290157 (Sigma-Aldrich, 10 mg/kg i.p. twice a day), C5aR1 inhibitor PMX53 [17] (1 mg/kg, i.p. every other day), or PD-1 antibody (RMP1-14, BE-0146, Bio X Cell, 250 μg per mouse i.p. every 4 days), or RaIgG2a isotype control (BE-0089, Bio X Cell, 250 μg i.p. every 4 days), as previously described. […]
Cells from tumors were pre-incubated with CD16/32 antibody (Fc block; 2.4G2; BD Pharmingen) and stained with fluorochrome-conjugated antibodies from Biolegend: BV605-CD45 (30-F11), AF700-CD3 (17A2), PerCP/Cy5.5-CD4 (GK1.5), and PE/Cy7-CD8α (53-6.7) as recommended by the manufacturer. To quantify IFN-γ expression, cells were stained with surface markers and permeabilized with Cytofix/Cytoperm (554714, BD Biosciences), and washed with 1× Perm/Wash buffer (554714, BD Biosciences) followed by incubation with PE-IFN-γ (XMG1.2, Biolegend). […] Data were acquired on BD Fortessa and analyzed with FlowJo software (Tree Star).
(Flow cytometry measures light scatter and fluorescence of single cells or particles in a stream.)

Consider `NC(N)=NCCC[C@H](NC(=O)COCC(c1ccccc1)c1ccccc1)C(=O)O` [SB290157], for which the “tumor growth (tumor volumes)” value in assay [1] is recorded as “reduced tumor growth”. The “expression of genes associated with T cell exhaustion (Pdcd1, Ctla4, Btla, Fas, Stat3) in tumors” value in assay [2] is “Btla and Fas were upregulated”. Also, the “TIL function: production of IFN-γ upon ex-vivo restimulation” value in assay [3] (FACS after CD3/CD28 restimulation, FIG. 6G-6J) was “highest production of IFN-γ”.

In the case of PMX53, the “tumor growth (tumor volumes)” value in assay [1] is “reduced tumor growth”. Also, the “expression of genes associated with T cell exhaustion (Pdcd1, Ctla4, Btla, Fas, Stat3) in tumors” value in assay [2] was “reduction in the expression”. The “recruitment of CD8+ T cells to tumors (TIL)” value in assay [3] (FACS, FIG. 6D, 6F) is reported as “influx CD8^+ T cells to tumors”.
